Source: patent US20250215029A1 (Recludix Pharma, Inc., priority 2022, published 2025)

What was measured:
[1] = biological target: T1, Recombinant STAT6 protein (STAT6 (W123-T658)) (Homo sapiens, UniProt P42226); assay: STAT6 Fluorescence Polarization (FP) Assay; type: binding; details: STAT6 (W123-T658) 250 nM, probe 5-FAM-Ap[…]-NH2 2 nM, 45-minute incubation; read-out: STAT6 (FP assay IC50 class)
T1 construct: Recombinant STAT6 protein (STAT6 (W123-T658))
T1 sequence (P42226 123-658): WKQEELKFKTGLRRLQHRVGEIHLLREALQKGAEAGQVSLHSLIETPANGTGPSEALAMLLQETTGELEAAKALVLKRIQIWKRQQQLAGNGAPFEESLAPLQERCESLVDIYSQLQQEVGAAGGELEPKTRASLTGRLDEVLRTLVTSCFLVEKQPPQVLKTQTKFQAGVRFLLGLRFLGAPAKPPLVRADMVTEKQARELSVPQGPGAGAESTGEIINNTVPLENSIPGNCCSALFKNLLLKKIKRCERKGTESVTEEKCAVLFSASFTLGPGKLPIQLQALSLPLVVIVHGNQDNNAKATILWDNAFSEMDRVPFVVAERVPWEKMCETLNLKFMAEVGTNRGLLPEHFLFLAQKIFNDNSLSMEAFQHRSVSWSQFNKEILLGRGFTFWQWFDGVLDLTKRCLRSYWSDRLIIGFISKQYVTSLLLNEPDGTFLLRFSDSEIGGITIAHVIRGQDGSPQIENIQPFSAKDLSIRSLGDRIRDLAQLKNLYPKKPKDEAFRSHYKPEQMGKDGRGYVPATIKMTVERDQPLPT
Method in brief: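 Serially diluted compounds received a premix of STAT6 (W123-T658, 250 nM) and 5-FAM peptide probe (2 nM) in pH 7.4 HEPES buffer containing DTT and Tween 20. Following 45 min at room temperature, FP was recorded. IC50s were fitted by nonlinear regression; values are binned A (≤300 nM), B (>300-3000 nM), C (>3-30 μM), D (>30 μM).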

[2] = biological target: T2, Recombinant STAT3 protein (STAT3 (G127-I722)) (Homo sapiens, UniProt P40763); assay: STAT3 Fluorescence Polarization (FP) Assay; type: binding; details: STAT3 (G127-I722) 25 nM, probe 5-FAM-GpYLPQTV-NH2 2 nM, 45-minute incubation; read-out: STAT3 (FP assay IC50 class)
T2 construct: Recombinant STAT3 protein (STAT3 (G127-I722))
Method in brief: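 Displacement of a 2 nM 5-FAM-labelled pY peptide (GpYLPQTV) from 25 nM recombinant STAT3 (G127-I722) was monitored by fluorescence polarization. Incubation lasted 45 min at room temperature in pH 7.4 HEPES buffer containing 1% DMSO.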

T2 sequence (P40763 127-722): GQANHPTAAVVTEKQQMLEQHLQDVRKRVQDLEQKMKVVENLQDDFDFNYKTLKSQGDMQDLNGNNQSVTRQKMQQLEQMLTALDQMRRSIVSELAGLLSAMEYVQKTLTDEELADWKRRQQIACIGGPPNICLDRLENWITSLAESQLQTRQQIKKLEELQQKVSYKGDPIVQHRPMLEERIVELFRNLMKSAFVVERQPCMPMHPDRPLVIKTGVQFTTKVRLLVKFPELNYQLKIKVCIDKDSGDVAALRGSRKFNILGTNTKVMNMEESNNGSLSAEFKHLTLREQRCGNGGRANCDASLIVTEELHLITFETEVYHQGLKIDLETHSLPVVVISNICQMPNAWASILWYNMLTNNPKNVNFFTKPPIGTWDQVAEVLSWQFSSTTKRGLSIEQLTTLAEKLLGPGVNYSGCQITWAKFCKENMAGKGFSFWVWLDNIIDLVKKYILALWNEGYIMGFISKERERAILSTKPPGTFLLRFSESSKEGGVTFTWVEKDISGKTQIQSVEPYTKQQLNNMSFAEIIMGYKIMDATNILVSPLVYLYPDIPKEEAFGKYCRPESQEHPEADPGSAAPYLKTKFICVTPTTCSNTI

Row | Structure (SMILES) | IC50 [1] | IC50 [2]
1 | COC1(c2nccn2C)CN(C(=O)[C@@H]2CC[C@@H]3CCC4(CC4)C[C@H](NC(=O)c4ccc5ccc(C(F)(F)P(=O)(O)O)cc5c4)C(=O)N32)C1 [Compound 215, (difluoro(7-(((3′S,6′S,10a′S)-3′-(3-methoxy-3-(1-methyl-1H-imidazol-2-yl)azetidine-1-carbonyl)-5′-oxooctahydro-5′H-spiro[cyclopropane-1,8′-pyrrolo[1,2-a]azocin]-6′-yl)carbamoyl)naphthalen-2-yl)methyl)phosphonic acid] | 3 to 30 µM | 1 to 10 µM
2 | O=C(N[C@H]1CC2(CC[C@H]3CC[C@@H](C(=O)N4CC(c5cccnc5)C4)N3C1=O)CC2)c1cc2cc(CP(=O)(O)O)ccc2s1 [Compound 216, ((2-(((3′S,6′S,10a′S)-5′-oxo-3′-(3-(pyridin-3-yl)azetidine-1-carbonyl)octahydro-5′H-spiro[cyclopropane-1,8′-pyrrolo[1,2-a]azocin]-6′-yl)carbamoyl)benzo[b]thiophen-5-yl)methyl)phosphonic acid] | 3 to 30 µM | 0.1 to 1 µM
3 | O=C(N[C@H]1CCCC[C@H]2CC[C@@H](C(=O)N3CCC(c4cccnc4)C3)N2C1=O)c1ccc2ccc(CP(=O)(O)O)cc2c1 (stereo partly drawn) [Compound 217, ((7-(((3S,6S,10aS)-5-oxo-3-(3-(pyridin-3-yl)pyrrolidine-1-carbonyl)decahydropyrrolo[1,2-a]azocin-6-yl)carbamoyl)naphthalen-2-yl)methyl)phosphonic acid] | 3 to 30 µM | 1 to 10 µM
4 | O=C(N[C@H]1CCCC[C@H]2CC[C@@H](C(=O)N3CCC(c4cccnc4)C3)N2C1=O)c1ccc2ccc(C(F)(F)P(=O)(O)O)cc2c1 (stereo partly drawn) [Compound 218, (difluoro(7-(((3S,6S,10aS)-5-oxo-3-(3-(pyridin-3-yl)pyrrolidine-1-carbonyl)decahydropyrrolo[1,2-a]azocin-6-yl)carbamoyl)naphthalen-2-yl)methyl)phosphonic acid] | ≤ 0.3 µM | 0.1 to 1 µM
5 | CC(F)(c1ccc2sc(C(=O)N[C@H]3CCCC[C@H]4CC[C@@H](C(=O)N5CCC(c6cccnc6)C5)N4C3=O)cc2c1)P(=O)(O)O (stereo partly drawn) [Compound 222, (1-fluoro-1-(2-(((3S,6S,10aS)-5-oxo-3-(3-(pyridin-3-yl)pyrrolidine-1-carbonyl)decahydropyrrolo[1,2-a]azocin-6-yl)carbamoyl)benzo[b]thiophen-5-yl)ethyl)phosphonic acid] | 0.3 to 3 µM | 0.1 to 1 µM
6 | O=C(N[C@H]1CCCC[C@H]2CC[C@@H](C(=O)N3CCC(c4cccnc4)C3)N2C1=O)c1cc2cc(C(F)P(=O)(O)O)ccc2s1 (stereo partly drawn) [Compound 223, (fluoro(2-(((3S,6S,10aS)-5-oxo-3-(3-(pyridin-3-yl)pyrrolidine-1-carbonyl)decahydropyrrolo[1,2-a]azocin-6-yl)carbamoyl)benzo[b]thiophen-5-yl)methyl)phosphonic acid] | 0.3 to 3 µM | 0.1 to 1 µM
7 | COc1ccncc1C1CN(C(=O)[C@@H]2CC[C@@H]3CCCC[C@H](NC(=O)c4cc5cc(C(F)P(=O)(O)O)ccc5s4)C(=O)N32)C1 (stereo partly drawn) [Compound 236, (fluoro(2-(((3S,6S,10aS)-3-(3-(4-methoxypyridin-3-yl)azetidine-1-carbonyl)-5-oxodecahydropyrrolo[1,2-a]azocin-6-yl)carbamoyl)benzo[b]thiophen-5-yl)methyl)phosphonic acid] | 3 to 30 µM | < 0.1 µM
8 | CCC[C@@H]1CC[C@H](NC(=O)c2cc3cc(C(F)P(=O)(O)O)ccc3s2)C(=O)N2[C@H](CC[C@H]2C(=O)N2CC(c3cnccc3OC)C2)C1 (stereo partly drawn) [Compound 241, (fluoro(2-(((3S,6S,9R,10aR)-3-(3-(4-methoxypyridin-3-yl)azetidine-1-carbonyl)-5-oxo-9-propyldecahydropyrrolo[1,2-a]azocin-6-yl)carbamoyl)benzo[b]thiophen-5-yl)methyl)phosphonic acid] | 3 to 30 µM | < 0.1 µM
9 | O=C(N[C@H]1CCCC[C@H]2CC[C@@H](C(=O)N3C[C@@H](c4cccnc4)CC34CC4)N2C1=O)c1cc2cc(CP(=O)(O)O)ccc2s1 [Compound 244, ((2-(((3S,6S,10aS)-5-ox0-3-((R)-6-(pyridin-3-yl)-4-azaspiro[2.4]heptane-4-carbonyl)decahydropyrrolo[1,2-a]azocin-6-yl)carbamoyl)benzo[b]thiophen-5-yl)methyl)phosphonic acid] | 0.3 to 3 µM | 1 to 10 µM
10 | COc1ccncc1C1CN(C(=O)[C@@H]2CC[C@@H]3C[C@@H](C(C)C)CC[C@H](NC(=O)c4cc5cc(C(F)P(=O)(O)O)ccc5s4)C(=O)N32)C1 (stereo partly drawn) [Compound 246, (fluoro(2-(((3S,6S,9S,10aR)-9-isopropyl-3-(3-(4-methoxypyridin-3-yl)azetidine-1-carbonyl)-5-oxodecahydropyrrolo[1,2-a]azocin-6-yl)carbamoyl)benzo[b]thiophen-5-yl)methyl)phosphonic acid] | 3 to 30 µM | < 0.1 µM
11 | CC(O)C1(c2ccccc2)CN(C(=O)[C@@H]2CC[C@@H]3CCCC[C@H](NC(=O)c4cc5cc(C(F)(F)P(=O)(O)O)ccc5s4)C(=O)N32)C1 (stereo partly drawn) [Compound 495, (difluoro(2-(((3S,6S,10aS)-3-(3-(1-hydroxyethyl)-3-phenylazetidine-1-carbonyl)-5-oxodecahydropyrrolo[1,2-a]azocin-6-yl)carbamoyl)benzo[b]thiophen-5-yl)methyl)phosphonic acid] | 3 to 30 µM | 0.1 to 1 µM
12 | Cc1cc(C#N)cnc1C1CN(C(=O)[C@@H]2CC[C@@H]3CCCC[C@H](NC(=O)c4cc5cc(C(F)(F)P(=O)(O)O)ccc5s4)C(=O)N32)C1 [Compound 496, ((2-(((3S,6S,10aS)-3-(3-(5-cyano-3-methylpyridin-2-yl)azetidine-1-carbonyl)-5-oxodecahydropyrrolo[1,2-a]azocin-6-yl)carbamoyl)benzo[b]thiophen-5-yl)difluoromethyl)phosphonic acid] | 0.3 to 3 µM | < 0.1 µM

Next, values leading:

Row | IC50 [1] | IC50 [2] | Structure (SMILES)
13 | 3 to 30 µM | 1 to 10 µM | CC(=O)N1C[C@H](NC(=O)[C@@H]2CC[C@@H]3CCC[C@H](NC(=O)c4cc5cc(CP(=O)(O)O)ccc5s4)C(=O)N32)[C@@H](F)C1 [Compound 219, ((2-(((3S,6S,9aS)-3-(((3S,4S)-1-acetyl-4-fluoropyrrolidin-3-yl)carbamoyl)-5-oxooctahydro-1H-pyrrolo[1,2-a]azepin-6-yl)carbamoyl)benzo[b]thiophen-5-yl)methyl)phosphonic acid]
14 | 3 to 30 µM | < 0.1 µM | CC(F)(c1ccc2sc(C(=O)N[C@H]3CCC[C@H]4CC[C@@H](C(=O)N5CC(c6cccnc6)C5)N4C3=O)cc2c1)P(=O)(O)O (stereo partly drawn) [Compound 221, (1-fluoro-1-(2-(((3S,6S,9aS)-5-oxo-3-(3-(pyridin-3-yl)azetidine-1-carbonyl)octahydro-1H-pyrrolo[1,2-a]azepin-6-yl)carbamoyl)benzo[b]thiophen-5-yl)ethyl)phosphonic acid]
15 | 3 to 30 µM | < 0.1 µM | O=C(N[C@@H]1C(=O)N2[C@@H](CCC[C@H]1C1CC1)CC[C@H]2C(=O)N1CC(c2cccnc2)C1)c1cc2cc(C(F)(F)P(=O)(O)O)ccc2s1 [Compound 233, ((2-(((3S,6S,7S,10aS)-7-cyclopropyl-5-oxo-3-(3-(pyridin-3-yl)azetidine-1-carbonyl)decahydropyrrolo[1,2-a]azocin-6-yl)carbamoyl)benzo[b]thiophen-5-yl)difluoromethyl)phosphonic acid]
16 | 3 to 30 µM | < 0.1 µM | CC[C@H]1CC[C@H](NC(=O)c2cc3cc(C(F)P(=O)(O)O)ccc3s2)C(=O)N2[C@H](CC[C@H]2C(=O)N2CC(c3cnccc3OC)C2)C1 (stereo partly drawn) [Compound 245, ((2-(((3S,6S,9S,10aR)-9-ethyl-3-(3-(4-methoxypyridin-3-yl)azetidine-1-carbonyl)-5-oxodecahydropyrrolo[1,2-a]azocin-6-yl)carbamoyl)benzo[b]thiophen-5-yl)fluoromethyl)phosphonic acid]
17 | 3 to 30 µM | < 0.1 µM | CCC[C@H]1CC[C@H](NC(=O)c2cc3cc(C(F)P(=O)(O)O)ccc3s2)C(=O)N2[C@H](CC[C@H]2C(=O)N2CC(c3cnccc3OC)C2)C1 (stereo partly drawn) [Compound 247, (fluoro(2-(((3S,6S,9S,10aR)-3-(3-(4-methoxypyridin-3-yl)azetidine-1-carbonyl)-5-oxo-9-propyldecahydropyrrolo[1,2-a]azocin-6-yl)carbamoyl)benzo[b]thiophen-5-yl)methyl)phosphonic acid]
